Results published in patent publication US5206247A, “Spiro(4.5.)decane compounds” (Adir Et Compagnie, priority 1990, dated 1993).

Legend:
human LDLs [1] = assay: Modification of the LDLs by endothelial cells (MDA formation); type: cell-based; settings: for ability to protect human LDLs compared with probucol or vitamin E, endothelial cells: modifications induced by endothelial cells; for IC50: oxidation by rabbit aorta endothelial cells, 24 hours, read-out: IC50 EC (inhibition of lipid peroxidation of human LDLs, MDA production); for times more powerful than probucol (endothelial cells): test using endothelial cells
Protocol: Human LDLs are incubated for 24 hours in the presence of rabbit aorta endothelial cells (line RECL B4 supplied by Professor Steinberg, USA) and in the absence or presence of the test compounds (10^-7 M to 10^-4 M).
After incubation, the peroxidation of the LDLs is evaluated by electrophoresis on agar gel and by the formation of one of the products of lipid peroxidation: malonic dialdehyde (MDA) (Steinbrecher U.P., Parthasarathy S, Leake D. S., Witztum J. L., and Steinberg D., Proc. Nat. Acad. Sci. USA 81. 3883-3887, 1984).
The activity of the test compounds is evaluated by calculating the concentrations that reduce the production of MDA by 50% (IC50) compared with the control experiments carried out in the absence of test compound.
(§1) Table A lists the IC50 values, which indicate the capacity to inhibit the lipid peroxidation of human LDLs, obtained with a sample of the compounds of the invention and of the reference compounds probucol and vitamin E, in two tests causing the development of the oxidation of the LDLs: by copper sulphate (Cu^2+) or by endothelial cells (EC).

human LDLs [2] = assay: Modification of the LDLs by copper sulphate (MDA formation); type: biochemical; settings: for ability to protect human LDLs compared with probucol or vitamin E, copper sulphate: modifications induced by copper sulphate; for IC50: oxidation by copper sulphate, 24 hours, read-out: IC50 Cu^2+ (inhibition of lipid peroxidation of human LDLs, MDA production)
Protocol: Human LDLs are incubated for 24 hours in the presence of copper sulphate (5×10^-5 M or 5×10^-6 M) and in the absence or presence of the test compounds (10^-7 M to 10^-4 M).
After incubation, the peroxidation of the LDLs is evaluated by electrophoresis on agar gel and by the formation of one of the products of lipid peroxidation: malonic dialdehyde (MDA) (Parthasarathy S., Young S. G., Witztum J. L., Pittman R. C., and Steinberg D.; J. Clin. Invest. 77, 641-644, 1986).
The activity of the test compounds is evaluated by calculating the concentrations that reduce the production of MDA by 50% (IC50) compared with control experiments carried out in the absence of test compound.
as §1

cardiac cells = assay: Oxidative necrosis of cardiac cells induced by hypoxanthine/xanthine oxidase; type: cell-based, new-born rats; settings: for effect on oxidative necrosis of cardiac cells compared with reference compounds: 10^-6 M and 10^-5 M; for activity at 10 µM / activity at 1 µM / activity at 0.1 µM / index of necrosis of cardiac cells: control = 100, means ± sem; for activity at 10 µM / activity at 1 µM / activity at 0.1 µM: read-out: index of necrosis of cardiac cells; for inhibition at 10 µM / inhibition at 1 µM: Cardiomyocyte, read-out: reduction of oxidative necrosis of cardiomyocytes; for index of necrosis of cardiac cells: 240 min
Protocol: Cardiac cells of new-born rats are used between the 5th and 6th days after placing in a culture. Oxidative necrosis is induced by the enzymatic system hypoxanthine (HX, 1 mM) and xanthine oxidase (XO, 10 mU/ml), which produces free radicals. The necrosis is evaluated 4 hours after the addition of XO/HX by the spectrophotometric measurement of the cytosolic α-hydroxybutyrate dehydrogenase (α-HBDH) activity liberated in the supernatant. Two reference molecules (probucol, vitamin E) and 3 molecules representative of the present invention (corresponding to Examples 1, 3 and 4) were tested. The cells are treated with the molecules 16 hours and 1 hour before the beginning of the experiment after renewing the medium. At the beginning of the experiment, the treatment is carried out one last time.
Table B lists the indices of the necrosis of cardiac cells induced by the system hypoxanthine/xanthine oxidase on its own or in the presence of increasing concentrations of the compounds of the invention or of the reference compounds: probucol and vitamin E.
The necrosis index 100 corresponds to a liberation of 43.6±1.0% in 4 hours of the cytosolic content of α-HBDH in the supernatant.
The results are expressed in the form of means ± sem (4≤n≤5, 3 repetitions per experiment).

[3] = system: LDLs of the Watanabe rabbits; assay: Ex vivo copper sulphate oxidation of LDLs from orally treated Watanabe rabbits (MDA production); type: in vivo; settings: for MDA production: 3 days
Protocol: Watanabe rabbits ([…] hyperlipidaemic rabbits) are used that range in weight from 3 kg to 5 kg. The animals are treated orally with the carrier of the test compounds (control group) or with the test compounds at doses of 10, 50 and 250 mg/kg/day for 3 days.
When the treatment is complete, the LDLs of the animals are prepared by ultracentrifugation and subjected to oxidation with copper sulphate (5×10^-6 M). The lipid peroxidation of the LDLs is evaluated after various periods of incubation with copper sulphate (from 2 to 24 hours) by measuring the formation of MDA.
Table C lists the MDA production values according to the incubation period with copper sulphate of those LDLs originating from the control animals and those originating from the animals treated with the compounds of Examples 1, 3 and 31 at different doses or with probucol.

[4] = Rattus norvegicus, 4 h, 10^-5 M
[5] = Rattus norvegicus, 4 h, 10^-6 M
[6] = Rattus norvegicus, 4 h, 10^-7 M
[7] = 250 mg/kg/day oral, 2 hours incubation with copper sulphate
[8] = 250 mg/kg/day oral, 4 hours incubation with copper sulphate
[9] = 250 mg/kg/day oral, 6 hours incubation with copper sulphate
[10] = 250 mg/kg/day oral, 8 hours incubation with copper sulphate
[11] = 250 mg/kg/day oral, 24 hours incubation with copper sulphate
[12] = oral, peroxidation induced by copper sulphate
[13] = 50 mg/kg/day oral, 2 hours incubation with copper sulphate
[14] = 50 mg/kg/day oral, 4 hours incubation with copper sulphate
[15] = 50 mg/kg/day oral, 6 hours incubation with copper sulphate
[16] = 50 mg/kg/day oral, 8 hours incubation with copper sulphate
[17] = 50 mg/kg/day oral, 24 hours incubation with copper sulphate

Compound	IC50 (human LDLs [1])	IC50 (human LDLs [2])	ability to protect human LDLs compared with probucol or vitamin E, endothelial cells (human LDLs [1])	ability to protect human LDLs compared with probucol or vitamin E, copper sulphate (human LDLs [2])	activity at 10 µM (cardiac cells; [4])	activity at 1 µM (cardiac cells; [5])	activity at 0.1 µM (cardiac cells; [6])	times more powerful than probucol (endothelial cells) (human LDLs [1])	MDA production [3, 7]	MDA production [3, 8]	MDA production [3, 9]	MDA production [3, 10]	MDA production [3, 11]	further results
CC(C)(C)c1cc(OCCCN2CCC3(CC2)CNC(=O)O3)cc(C(C)(C)C)c1O [Example 6]	300 nM	300 nM	greater ability	greater ability	–	–	–	–	–	–	–	–	–	–
CC(C)(C)c1cc(SCC(O)CN2CCC3(CC2)CNC(=O)O3)cc(C(C)(C)C)c1O (racemic) [Example 1, (R,S)-8-[3-(3,5-di-tert.-butyl-4-hydroxyphenylthio)-2-hydroxypropyl]-1-oxa-2-oxo-3,8-diazaspiro[4.5]decane]	–	–	greater ability	greater ability	3.8 ± 1.9%	19.1 ± 7.3%	42.8 ± 11.3%	100 times	0.2 nM/mg proteins	1.27 nM/mg proteins	0 nM/mg proteins	0 nM/mg proteins	1.02 nM/mg proteins	effect on oxidative necrosis of cardiac cells compared with reference compounds (cardiac cells): distinctly superior to the reference compounds; inhibition at 0.1 µM (cardiac cells; Rattus norvegicus, 4 h, starting from 10^-7 M, read-out: protective effect on oxidative necrosis of cardiac cells): > 50%; inhibition at 10 µM (cardiac cells; [4]): > 95%; inhibition at 1 µM (cardiac cells; [5]): > 80%; dose from which peroxidation of the LDLs is inhibited [3, 12]: ≥ 50 mg/kg/day
CC(C)(C)c1cc(SCCCCCN2CCC3(CC2)CNC(=O)O3)cc(C(C)(C)C)c1O [Example 4]	20 nM	800 nM	greater ability	greater ability	2.6 ± 0.7%	2.1 ± 1%	79.1 ± 8%	100 times	–	–	–	–	–	effect on oxidative necrosis of cardiac cells compared with reference compounds (cardiac cells): distinctly superior to the reference compounds; inhibition at 10 µM (cardiac cells; [4]): > 95%; inhibition at 1 µM (cardiac cells; [5]): > 80%
CC(C)(C)c1cc(OCCCCCN2CCC3(CC2)CNC(=O)O3)cc(C(C)(C)C)c1O [Example 5]	800 nM	700 nM	greater ability	greater ability	–	–	–	–	–	–	–	–	–	–
CC(C)(C)c1cc(SCCCN2CCC3(CC2)CNC(=O)O3)cc(C(C)(C)C)c1O [Example 3]	–	300 nM	greater ability	greater ability	4.2 ± 2.7%	12 ± 4.4%	60.6 ± 17.1%	100 times	0.66 nM/mg proteins	0 nM/mg proteins	0 nM/mg proteins	0.69 nM/mg proteins	0.91 nM/mg proteins	effect on oxidative necrosis of cardiac cells compared with reference compounds (cardiac cells): distinctly superior to the reference compounds; inhibition at 10 µM (cardiac cells; [4]): > 95%; inhibition at 1 µM (cardiac cells; [5]): > 80%; MDA production ([3]; 10 mg/kg/day oral, 2 hours incubation with copper sulphate): 1.27 nM/mg proteins; MDA production ([3]; 10 mg/kg/day oral, 4 hours incubation with copper sulphate): 0.27 nM/mg proteins; MDA production ([3]; 10 mg/kg/day oral, 6 hours incubation with copper sulphate): 3.29 nM/mg proteins; MDA production ([3]; 10 mg/kg/day oral, 8 hours incubation with copper sulphate): 6.85 nM/mg proteins; MDA production ([3]; 10 mg/kg/day oral, 24 hours incubation with copper sulphate): 22.78 nM/mg proteins; MDA production [3, 13]: 0.16 nM/mg proteins; MDA production [3, 14]: 0 nM/mg proteins; MDA production [3, 15]: 1.06 nM/mg proteins; MDA production [3, 16]: 1.44 nM/mg proteins; MDA production [3, 17]: 7.30 nM/mg proteins; dose from which particularly effective [3, 12]: ≥ 10 mg/kg/day; dose from which peroxidation of the LDLs is inhibited [3, 12]: ≥ 50 mg/kg/day

Continued, in another order:

IC50 (human LDLs [1])	IC50 (human LDLs [2])	Compound	ability to protect human LDLs compared with probucol or vitamin E, endothelial cells (human LDLs [1])	ability to protect human LDLs compared with probucol or vitamin E, copper sulphate (human LDLs [2])	activity at 10 µM (cardiac cells; [4])	activity at 1 µM (cardiac cells; [5])	activity at 0.1 µM (cardiac cells; [6])	times more powerful than probucol (endothelial cells) (human LDLs [1])	MDA production [3, 7]	MDA production [3, 8]	MDA production [3, 9]	MDA production [3, 10]	MDA production [3, 11]	further results
–	2000 nM	CC(C)(C)c1cc(OCC(O)CN2CCC3(CC2)CNC(=O)O3)cc(C(C)(C)C)c1O (stereo not drawn) [Example 7]	–	–	–	–	–	–	–	–	–	–	–	–
4000 nM	> 100000 nM	vitamin E [reference compound]	–	–	–	–	–	–	–	–	–	–	–	index of necrosis of cardiac cells (cardiac cells; 10^-5 M, 10 µM): 61.1 ± 2.5; index of necrosis of cardiac cells (cardiac cells; 10^-6 M, 1 µM): 79.0 ± 7.4; index of necrosis of cardiac cells (cardiac cells; 10^-7 M, 0.1 µM): 83.5 ± 8.0
–	300 nM	Cc1c(C)c2c(c(C)c1O)CCC(C)(CCN1CCC3(CC1)CNC(=O)O3)O2 (stereo not drawn) [Example 33]	–	–	–	–	–	–	–	–	–	–	–	–
–	300 nM	Cc1cc(SCC(O)CN2CCC3(CC2)CNC(=O)O3)c(C)c(C)c1O (stereo not drawn) [Example 32]	–	–	–	–	–	100 times	–	–	–	–	–	–
–	300 nM	Cc1c(C)c2c(c(C)c1O)CCC(C)(CCCN1CCC3(CC1)CNC(=O)O3)O2 (stereo not drawn) [Example 34]	–	–	–	–	–	–	–	–	–	–	–	–
4000 nM	3000 nM	CC(C)(Sc1cc(C(C)(C)C)c(O)c(C(C)(C)C)c1)Sc1cc(C(C)(C)C)c(O)c(C(C)(C)C)c1 [probucol, reference compound]	–	–	26.6 ± 6.3%	68.8 ± 3.9%	103 ± 2%	–	1.85 nM/mg proteins	3.50 nM/mg proteins	4.90 nM/mg proteins	12.26 nM/mg proteins	23.81 nM/mg proteins	retardation of peroxidation of the LDLs compared with control animals ([3]; oral treatment of Watanabe rabbits): approximately 2 hours
–	300 nM	Cc1cc(OCCCCCN2CCC3(CC2)CNC(=O)O3)c(C)c(C)c1O [Example 30]	–	–	–	–	–	–	–	–	–	–	–	–
20 nM	800 nM	CC(C)(CCN1CCC2(CC1)CNC(=O)O2)Sc1cc(C(C)(C)C)c(O)c(C(C)(C)C)c1 [Example 31]	greater ability	greater ability	–	–	–	–	0.19 nM/mg proteins	0.51 nM/mg proteins	0.16 nM/mg proteins	0.71 nM/mg proteins	0.99 nM/mg proteins	MDA production [3, 13]: 0.33 nM/mg proteins; MDA production [3, 14]: 0.72 nM/mg proteins; MDA production [3, 15]: 1.03 nM/mg proteins; MDA production [3, 16]: 1.04 nM/mg proteins; MDA production [3, 17]: 3.16 nM/mg proteins; dose from which peroxidation of the LDLs is inhibited [3, 12]: ≥ 50 mg/kg/day
